Legend:
Wnt pathway = assay: Cellular assay for Wnt pathway activity, LS174T-shl-fLuc clone 5 (LS174T-L5) luciferase reporter assay; type: cell-based; conditions: Homo sapiens; LS174T TCF luciferase reporter cells, 24 hours incubation
From the text: 1. Cellular Assay for Wnt Pathway Activity LS174T-shl-fLuc Clone 5 (LS174T-L5) Reporter Assay Principle:
This assay is based on an in-vitro luciferase activity readout. The human colon cancer cell line, LS174T was transduced with a lentivirus encoding a short half-life luciferase (with a destabilised PEST sequence construct; construct F1756): 16×TCF/LEF transcription sites—short half life firefly luciferase on a basal pTA promoter—puromycin resistance gene on an EF-1-α promoter). This construct was made using the lentiviral base vector: pCDF1-MCS2-EF1-Puro from System Biosciences (cat. # CD110B-1). The luciferase has a T1/2 of about 60 minutes.
Stable luciferase-expressing clones were selected, using 1 μg/mL puromycin selection and the clones were bulked up.
Compounds that inhibit the Wnt pathway are predicted to inhibit the induction of luciferase transcription by TCF; this will result in reduced luciferase protein production and luciferase signal readout.
Compounds were tested for their Wnt pathway inhibitory activities using the described firefly luciferase reporter cell based assay. An LS174T luciferase reporter cell line was used which contained a T-Cell Factor (TCF) dependent gene promoter firefly luciferase construct.
Compounds, in concentrations from 30 μM to 1 nM, were incubated for 24 hours on the cells. Luciferase activities were determined using the Steady Glo Luciferase Assay System (Promega) and the TOPCOUNT microplate reader (Perkin Elmer). For analysis, the obtained data were normalized against the untreated vehicle control and fitted for determination of the IC50 values using the Excel Fit application of the Excel Software (Microsoft).

[1] = CLint (intrinsic clearance) assay, liver microsomal incubation; type: in vitro ADME, human; conditions: liver microsomes, pH 7.4; human hepatic microsomes, 0.5 mg/mL protein, class symbols
Description: Also shown is the human hepatic microsomal intrinsic clearance (CLint), whereby the following classification is used:
2. CLint (Intrinsic Clearance) Assay
A Tecan Genesis workstation (RWS ASY 150/8) was used to perform the microsomal incubations. Analysis was carried out using a Waters ACQUITY UPLC system coupled to an ABSciex API3000 mass spectrometer. Data analysis was performed using Assay Explorer (Symyx).
Column: Acquity UPLC BEH C18, 2.1×50 mm, 1.7 um (Waters)
Mobile phases: • A=0.1% formic acid in water • B=acetonitrile
Column temperature: 50° C.
0.1 M potassium phosphate buffer pH 7.4 containing 1 mM MgCl2
15 mM NADPH in phosphate buffer
5.0 mg protein/mL liver microsomes in phosphate buffer
Each experiment consists of 12 test and 2 reference compounds. The reference compounds are incubated as a cocktail.
Dilution of test compounds was done in 2 steps from a 10 mM DMSO stock solution. First 4 μL stock solution was added to 196 μL of 20% DMSO in potassium phosphate buffer pH 7.4. In a second step 10 μL of the first dilution were added to 1890 μL potassium phosphate buffer and 100 μL internal standard solution to a final concentration of […].
100 μL of the final compound dilution were aliquoted into a 96 deep well plate. 12.5 μL liver microsomes were added to each well (0.5 mg/mL final protein concentration) and the samples preincubated for 5 min at 37° C. and 800 rpm agitation.
After the preincubation, 250 μL cold acetonitrile were added to the 0 min samples to prevent a reaction. Following this, 12.5 μL NADPH solution were added to all wells to start the incubation, with the exception of the 0 min and 30 min controls without cofactor, where the NADPH was substituted for phosphate buffer.
The incubations were stopped after 5, 10, 20 and 30 min by adding 250 μL cold acetonitrile to the individual wells.
The quenched samples were then centrifuged at 4000 g for 1 h at 4° C. 100 μL of the supernatant were transferred into 96 well plates for analysis.
The metabolic stability of each compound was determined by measurement of the change in LC-MS/MS peak area over time. Assay Explorer software was used to automatically calculate the slope k of the decline. The intrinsic clearance (CLint) of each compound was then calculated according to the formula: CLint(μL/min/mg protein)=k1000/protein concentration.

Row | IC50 (Wnt pathway) [nM] | microsomal CLint at 0.8 μM [1] [µL/min/mg] | Compound
1 | 25 | 100 to 150 | Cn1cc(-c2ccc(-c3cnc(N)c(Cl)c3N3CCC4(CCNC4=O)CC3)cc2)cn1 [Compound 16, 8-(2-Amino-3-chloro-5-(4-(1-methyl-1H-pyrazol-4-yl)phenyl)pyridin-4-yl)-2,8-diazaspiro[4.5]decan-1-one]
2 | 2 | 10 to 50 | Cn1ncc2cc(-c3cnc(N)c(Cl)c3N3CCC4(CC3)CC(=O)NC4=O)ccc21 [Compound 17, 8-[2-Amino-3-chloro-5-(1-methyl-1H-indazol-5-yl)-pyridin-4-yl]-2,8-diaza-spiro[4.5] decane-1,3-dione]
3 | 120 | 50 to 100 | Nc1ncc(-c2ccc(N3CCOCC3)cc2)c(N2CCC3(CCNC3=O)CC2)c1Cl [Compound 18, 8-[2-Amino-3-chloro-5-(4-morpholin-4-yl-phenyl)-pyridin-4-yl]-2,8-diaza-spiro[4.5] decan-1-one]
4 | 75 | 10 to 50 | Nc1ncc(-c2ccc3c(c2)CCC(=O)N3)c(N2CCC3(CCNC3=O)CC2)c1Cl [Compound 19, 6-[6-Amino-5-chloro-4-(1-oxo-2,8-diaza-spiro[4.5]dec-8-yl)-pyridin-3-yl]-3,4-dihydro-1H-quinolin-2-one]
5 | 54 | 10 to 50 | Cn1ncc2ccc(-c3cnc(N)c(Cl)c3N3CCC4(CC3)CNC(=O)O4)cc21 [Compound 20, 8-[2-Amino-3-chloro-5-(1-methyl-1H-indazol-6-yl)-pyridin-4-yl]-1-oxa-3,8-diaza-spiro[4.5] decan-2-one]
6 | 110 | 10 to 50 | Cn1ncc2cc(-c3cnc(N)c(Cl)c3N3CCC4(CC3)CNC(=O)O4)ccc21 [Compound 21, 8-[2-Amino-3-chloro-5-(1-methyl-1H-indazol-5-yl)-pyridin-4-yl]-1-oxa-3,8-diaza-spiro[4.5] decan-2-one]
7 | 38 | 10 to 50 | Cn1ccc(-c2ccc(-c3cnc(N)c(Cl)c3N3CCC4(CCNC4=O)CC3)cc2)n1 [Compound 22, 8-(2-Amino-3-chloro-5-(4-(1-methyl-1H-pyrazol-3-yl)phenyl)pyridin-4-yl)-2,8-diazaspiro[4.5]decan-1-one]
8 | 21 | 10 to 50 | Cn1ncc2ccc(-c3cnc(N)c(Cl)c3N3CCC4(CCNC4=O)CC3)cc21 [Compound 23, 8-[2-Amino-3-chloro-5-(1-methyl-1H-indazol-6-yl)-pyridin-4-yl]-2,8-diaza-spiro[4.5] decan-1-one]
9 | 18 | 100 to 150 | Nc1ncc(-c2ccc3cc[nH]c3c2)c(N2CCC3(CCNC3=O)CC2)c1Cl [Compound 24, 8-[2-Amino-3-chloro-5-(1H-indol-6-yl)-pyridin-4-yl]-2,8-diaza-spiro[4.5] decan-1-one]
10 | 34 | 50 to 100 | Cn1ncc2cc(-c3cnc(N)c(Cl)c3N3CCC4(CCNC4=O)CC3)ccc21 [Compound 25, 8-(2-Amino-3-chloro-5-(1-methyl-1H-indazol-5-yl)pyridin-4-yl)-2,8-diazaspiro[4.5]decan-1-one]
11 | 6 | 100 to 150 | CN1c2ccc(-c3cnc(N)c(Cl)c3N3CCC4(CCNC4=O)CC3)cc2CS1(=O)=O [Compound 26, 8-(2-Amino-3-chloro-5-(1-methyl-2,2-dioxido-1,3-dihydrobenzo[c]isothiazol-5-yl)pyridin-4-yl)-2,8-diazaspiro[4.5]decan-1-one]
12 | 34 | 100 to 150 | N#CC1CCN(c2c(-c3ccc(N4CCOCC4)cc3)cnc(N)c2Cl)CC1 [Compound 27, 1-(2-Amino-3-chloro-5-(4-morpholinophenyl)pyridin-4-yl)piperidine-4-carbonitrile]
13 | 12 | ≥ 150 | Nc1ccc(-c2ccc(-c3cnc(N)c(Cl)c3N3CCC4(CCNC4=O)CC3)cc2)cn1 [Compound 28, 8-{2-Amino-5-[4-(6-amino-pyridin-3-yl)-phenyl]-3-chloro-pyridin-4-yl}-2,8-diaza-spiro[4.5] decan-1-one]
14 | 30 | 100 to 150 | Nc1ncc(-c2ccc3cc[nH]c3c2)c(N2CCC3(CC2)CNC(=O)O3)c1Cl [Compound 29, 8-[2-Amino-3-chloro-5-(1H-indol-6-yl)-pyridin-4-yl]-1-oxa-3,8-diaza-spiro[4.5] decan-2-one]
15 | 12 | 10 to 50 | CN1CCN(c2ccc(-c3cnc(N)c(Cl)c3N3CCC(C#N)CC3)cc2)CC1 [Compound 30, 1-(2-Amino-3-chloro-5-(4-(4-methylpiperazin-1-yl)phenyl)pyridin-4-yl)piperidine-4-carbonitrile]
16 | 4 | 50 to 100 | Cn1ncc2cc(-c3cnc(N)c(Cl)c3N3CCC4(CC3)C(=O)Nc3ccccc34)ccc21 [Compound 31, 1′-(2-Amino-3-chloro-5-(1-methyl-1H-indazol-5-yl)pyridin-4-yl)spiro[indoline-3,4′-piperidin]-2-one]
17 | 17 | 10 to 50 | Nc1ncc(-c2ccc3oc(=O)[nH]c3c2)c(N2CCC3(CCNC3=O)CC2)c1Cl [Compound 32, 5-[6-Amino-5-chloro-4-(1-oxo-2,8-diaza-spiro[4.5]dec-8-yl)-pyridin-3-yl]-3H-benzooxazol-2-one]
18 | 154 | 10 to 50 | Nc1ncc(-c2ccc3c(c2)CC(=O)N3)c(N2CCC3(CCNC3=O)CC2)c1Cl [Compound 33, 8-[2-Amino-3-chloro-5-(2-oxo-2,3-dihydro-1H-indol-5-yl)-pyridin-4-yl]-2,8-diaza-spiro[4.5] decan-1-one]
19 | 370 | 10 to 50 | Nc1ncc(-c2ccc(-c3cnn(CCO)c3)cc2)c(N2CCC3(CC2)CNC(=O)O3)c1Cl [Compound 34, 8-(2-Amino-3-chloro-5-{4-[1-(2-hydroxy-ethyl)-1H-pyrazol-4-yl]-phenyl}-pyridin-4-yl)-1-oxa-3,8-diaza-spiro[4.5] decan-2-one]
20 | 35 | 50 to 100 | Cn1ncc2cc(-c3cnc(N)c(C(F)(F)F)c3N3CCC4(CCNC4=O)CC3)ccc21 [Compound 39, 8-(2-Amino-5-(1-methyl-1H-indazol-5-yl)-3-(trifluoromethyl)pyridin-4-yl)-2,8-diazaspiro[4.5]decan-1-one]
21 | 100 | 10 to 50 | Cn1cc(-c2ccc(-c3cnc(N)c(Cl)c3N3CCC4(CC3)NCCNC4=O)cc2)cn1 [Compound 40, 9-(2-Amino-3-chloro-5-(4-(1-methyl-1H-pyrazol-4-yl)phenyl)pyridin-4-yl)-1,4,9-triazaspiro[5.5]undecan-5-one]
22 | 75 | < 10 | Cn1cc(-c2ccc(-c3cnc(N)c(C(F)(F)F)c3N3CCC4(CC3)CNC(=O)O4)cc2)cn1 [Compound 41, 8-{2-Amino-5-[4-(1-methyl-1H-pyrazol-4-yl)-phenyl]-3-trifluoromethyl-pyridin-4-yl}-1-oxa-3,8-diaza-spiro[4.5] decan-2-one]
23 | 11 | 10 to 50 | CN1c2ccc(-c3cnc(N)c(C(F)(F)F)c3N3CCC4(CC3)CNC(=O)O4)cc2CS1(=O)=O [Compound 42, 8-[2-Amino-5-(1-methyl-2,2-dioxo-2,3-dihydro-1H-2I6-benzo[c]isothiazol-5-yl)-3-trifluoro-methyl-pyridin-4-yl]-1-oxa-3,8-diaza-spiro[4.5] decan-2-one]

— US9834541B2, “2-aminopyridine compounds” (Merck Patent GmbH, priority 2012, dated 2017)
